Assay results: patent US20110158953A1, “TUMOR SUPPRESSION THROUGH PLEXIN C1” (UNIVERSITY OF ROCHESTER, priority 2008, published 2011)
Entries after “also recorded” stand apart in the source; their conditions may differ.

What was measured:
Plexin C1 = Plexin C1 protein expression in human melanoma cell lines treated with DNA methylation inhibitor (Western blot); type: cell-based; conditions: 5 days; for Change in Plexin C1 protein: 3 μM
Protocol: Results are representative of 2 separate experiments.
Promotor hypermethylation plays a major role in transcriptional silencing of tumor suppressor genes in cancer and in melanoma (Dahl and Guldberg, 2007; Gronbaek et al., 2007; Rothhammer and Bosserhoff, 2007). To determine if Plexin C1 expression is regulated by DNA hypermethylation, melanoma cells were treated for 5 days with the DNA methylation inhibitor 5-Aza-2′-Deoxycytidine (5-Aza2Dc; 3 μM). Total cell lysates were then blotted for Plexin C1. […] But, a dose of 1.0 μM was the lowest dose that stimulated Plexin C1 expression in the YURIF and WW165 cell lines (FIG. 1C).
Neonatal foreskins were obtained according to the University of Rochester Research Subjects Review Board guidelines and were the source of cultured human melanocytes. Human melanocytes were cultured in MCDB 153 supplemented with 0.5% fetal bovine serum (FBS), bovine pituitary extract (15 μg/ml), phorbol ester (10 nM), basic fibroblast growth factor (1 ng/ml), insulin (5 μg/ml) and hydrocortisone (500 ng/ml). All supplements were purchased from Sigma Co, except FBS, which was purchased from Mediatech (Manassas, Va.). The following human melanoma cell lines were purchased from the Yale University Cell Core Facility: WW165, YURIF, YUSIK, YUMAC, and were maintained in Opti-MEM+5% FBS, except WW165 which was maintained in Opti-MEM+5% FBS and IBMX 0.1 mM. The C32 and WM115 human melanoma cell lines were obtained from American Type Culture Collection (Manassas Va.) and were maintained in Eagle Minimal Essential Media (MEM)+10% FBS and 1 mM sodium pyruvate. The WM115 and WW 165 cell lines were derived from melanomas primary to the skin; the other cell lines were derived from metastatic melanoma.
For Western blotting, cells were lysed in RIPA buffer (150 mM NaCl, 1% NP-40, 0.5% DOC, 0.1% SDS, 50 mM Tris-HCl) with protease inhibitors (Boehringer Mannheim, Gmbt, Germany) and phosphatase inhibitors (Gbiosciences, St. Louis, Mo.) and protein was quantified using bovine serum albumen (BSA) as standard (Bio-Rad Laboratories, Hercules, Calif.). Visualization of the immunoreactive proteins was accomplished with an enhanced chemiluminescence reaction (Pierce Chemical, Rockford, Ill.). For analysis of cell surface Sema7A expression in melanoma cell lines by flow cytometry, cells were placed in suspension in PBS/1% BSA and stained with FITC-conjugated antibodies against Sema7A for 30 minutes at room temperature. Negative controls consisted of cells incubated with FITC-conjugated IgM. After washing in PBS, cells were re-suspended in 0.5% formalin in PBS/1% BSA and analyzed using a FACS Caliber Machine (Becton Dickenson) at the flow cytometry core facility at the University of Rochester.

Erk1/Erk2 = experiment: Sema7A-stimulated MAP kinase activation (P-Erk1/Erk2) in human melanocytes (Western blot); type: cell-based; conditions: PD 98059 10 μM one hour prior to Sema7A 25 ng/ml for 5 minutes
Protocol: Total cell lysates were resolved on 10% SDS-PAGE and blotted for phosphorylated Erk1/Erk2; the blot was stripped and re-blotted for total Erk1/Erk2. […] Results are representative of 2 separate experiments. The specificity of MAP kinase activation was tested in melanocytes by the inclusion of the selective p42/44 MAP kinase inhibitor PD 98059 (10 μM) in cells treated with Sema7A (25 ng/ml) for 5 minutes (FIG. 4D). Shown are cell lyates resolved on SDS-PAGE and blotted for P-Erk1/Erk2. The blot was stripped and reblotted for total Erk1/Erk2. As expected, Sema7A stimulated phosphorylation of Erk1/Erk2 within 5 minutes of treatment. […] Results are representative of 2 separate experiments. […]
For Western blotting, cells were lysed in RIPA buffer (150 mM NaCl, 1% NP-40, 0.5% DOC, 0.1% SDS, 50 mM Tris-HCl) with protease inhibitors (Boehringer Mannheim, Gmbt, Germany) and phosphatase inhibitors (Gbiosciences, St. Louis, Mo.) and protein was quantified using bovine serum albumen (BSA) as standard (Bio-Rad Laboratories, Hercules, Calif.). […] After washing in PBS, cells were re-suspended in 0.5% formalin in PBS/1% BSA and analyzed using a FACS Caliber Machine (Becton Dickenson) at the flow cytometry core facility at the University of Rochester.

In the case of `Nc1ncn([C@H]2C[C@H](O)[C@@H](CO)O2)c(=O)n1` [5-Aza2Dc, 5-Aza-2′-Deoxycytidine], the “Change in Plexin C1 protein” value (Plexin C1; C32 melanoma cells) is reported as “no change”, the “Change in Plexin C1 protein” value (Plexin C1; WM115 melanoma cells) is reported as “no change” and the “Lowest dose that stimulated Plexin C1 expression” value (Plexin C1; WW165 cells, dose response 0.1 μM to 3.0 μM) is reported as 1.0 µM. For the same molecule, the “Change in Plexin C1 protein” value (Plexin C1; WW165 melanoma cells) was “reduction”, the “Change in Plexin C1 protein” value (Plexin C1; WW165 melanoma cells, listed as 5-AzaDc) was “decrease” and the “Dose sufficient to increase Plexin C1 expression” value (Plexin C1; YUMAC cells, dose response 0.1 μM to 3.0 μM) was 0.1 µM. The “Change in Plexin C1 protein” value (Plexin C1; YUMAC melanoma cells) was “increase”, the “Lowest dose that stimulated Plexin C1 expression” value (Plexin C1; YURIF cells, dose response 0.1 μM to 3.0 μM) was 1.0 µM and the “Change in Plexin C1 protein” value (Plexin C1; YURIF melanoma cells) was “reduction”. The “Change in Plexin C1 protein” value (Plexin C1; YURIF melanoma cells, listed as 5-AzaDc) was “decrease” and the “Change in Plexin C1 protein” value (Plexin C1; YUSIK melanoma cells) was “no change”.

In the case of `COc1cccc(-c2cc(=O)c3ccccc3o2)c1N` [PD 98059], the “Effect on Sema7A-induced Erk1/Erk2 phosphorylation” value (Erk1/Erk2) is reported as “no induction; also recorded: inhibited”.
